Legend:
Format in all cases: in vivo
[1] = test system: kochia (Kochia scoparia); assay: Test C preemergence, plant response rating
[2] = test system: oat, wild (wild oat Avena fatua); assay: Test C preemergence, plant response rating
[3] = test system: barnyardgrass (Echinochloa crus-galli); assay: Test C postemergence, plant response rating; conditions: for Barnyardgrass plant response rating: scale 0 to 100 (0 no effect, 100 complete control)
How it was run: (§1)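 Visual injury score, 0 = no effect, 100 = complete control, assigned against untreated controls after 13 to 15 d in the greenhouse. Compounds were applied in a surfactant-containing non-phytotoxic solvent mix, preemergence to seeded loam/sand or silt loam soil, or postemergence to 1- to 4-leaf plants (2 to 18 cm).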

[4] = test system: galium (catchweed bedstraw, Galium aparine); assay: Test C postemergence, plant response rating; conditions: for Galium plant response rating: scale 0 to 100 (0 no effect, 100 complete control)
How it was run: as §1

[5] = test system: velvetleaf (Abutilon theophrasti); assay: Test C postemergence, plant response rating
How it was run: as §1

[6] = test system: waterhemp (common waterhemp, Amaranthus rudis); assay: Test C postemergence, plant response rating
How it was run: as §1

[7] = test system: wheat (winter wheat, Triticum aestivum); assay: Test C postemergence, plant response rating
How it was run: as §1

[8] = test system: soybean (Glycine max); assay: Test C postemergence, plant response rating; conditions: for Soybean plant response rating: scale 0 to 100 (0 no effect, 100 complete control)
How it was run: as §1

[9] = test system: lambsquarters (Chenopodium album); assay: Test C postemergence, plant response rating; conditions: for Lambsquarters plant response rating: scale 0 to 100 (0 no effect, 100 complete control)
How it was run: as §1

[10] = test system: ragweed (common ragweed, Ambrosia elatior); assay: Test C postemergence, plant response rating; conditions: for Ragweed plant response rating: scale 0 to 100 (0 no effect, 100 complete control)
How it was run: as §1

[11] = test system: blackgrass (Alopecurus myosuroides); assay: Test C postemergence, plant response rating; conditions: for Blackgrass plant response rating: scale 0 to 100 (0 no effect, 100 complete control)
How it was run: as §1

[12] = test system: crabgrass, large (large crabgrass, Digitaria sanguinalis); assay: Test C postemergence, plant response rating; conditions: for Crabgrass, Large plant response rating: scale 0 to 100 (0 no effect, 100 complete control)
How it was run: as §1

[13] = test system: oat, wild (wild oat Avena fatua); assay: Test C postemergence, plant response rating; conditions: for Oat, Wild plant response rating: scale 0 to 100 (0 no effect, 100 complete control)
How it was run: as §1

[14] = test system: foxtail, giant (giant foxtail, Setaria faberii); assay: Test C postemergence, plant response rating; conditions: for Foxtail, Giant plant response rating: scale 0 to 100 (0 no effect, 100 complete control)
How it was run: as §1

[15] = test system: corn (Zea mays); assay: Test C postemergence, plant response rating; conditions: for Corn plant response rating: scale 0 to 100 (0 no effect, 100 complete control)
How it was run: as §1

[16] = test system: oilseed rape (Brassica napus); assay: Test C postemergence, plant response rating; conditions: for Oilseed Rape plant response rating: scale 0 to 100 (0 no effect, 100 complete control)
How it was run: as §1

[17] = test system: ryegrass, Italian (Italian ryegrass, Lolium multiflorum); assay: Test C postemergence, plant response rating; conditions: for Ryegrass, Italian plant response rating: scale 0 to 100 (0 no effect, 100 complete control)
How it was run: as §1

[18] = test system: nutsedge, yellow (yellow nutsedge, Cyperus esculentus); assay: Test C postemergence, plant response rating; conditions: for Nutsedge, Yellow plant response rating: scale 0 to 100 (0 no effect, 100 complete control)
How it was run: as §1

[19] = test system: galium (catchweed bedstraw, Galium aparine); assay: Test C preemergence, plant response rating
[20] = test system: surinam grass (Brachiaria decumbens); assay: Test C preemergence, plant response rating
[21] = 125 g ai/ha, scale 0 to 100 (0 no effect, 100 complete control)

## N#CC(CCCC(F)(F)F)c1ccccc1Oc1ncc(Cl)cn1 (centres unmarked) [Compound 144]
[1]; 31 g ai/ha, scale 0 to 100
  Plant response rating, Kochia: 90
[1]; 62 g ai/ha, scale 0 to 100
  Plant response rating, Kochia: 100
[1]; 125 g ai/ha, scale of 0 to 100
  Plant response rating, Kochia: 100
[2]; 31 g ai/ha, scale 0 to 100
  Plant response rating, Oat, Wild: 5
[2]; 62 g ai/ha, scale 0 to 100
  Plant response rating, Oat, Wild: 10
[2]; 125 g ai/ha, scale of 0 to 100
  Plant response rating, Oat, Wild: 10
[3]; 16 g ai/ha, scale of 0 to 100
  Plant response rating, Barnyardgrass: 5
[3]; 31 g ai/ha, scale 0 to 100
  Plant response rating, Barnyardgrass: 5
[3]; 62 g ai/ha
  Barnyardgrass plant response rating: 10
[3]; 125 g ai/ha
  Barnyardgrass plant response rating: 10
[4]; 16 g ai/ha, scale of 0 to 100
  Plant response rating, Galium: 50
[4]; 31 g ai/ha, scale 0 to 100
  Plant response rating, Galium: 70
[4]; 62 g ai/ha
  Galium plant response rating: 85
[4]; 125 g ai/ha
  Galium plant response rating: 90
[5]; 16 g ai/ha, scale of 0 to 100
  Plant response rating, Velvetleaf: 25
[5]; 31 g ai/ha, scale 0 to 100
  Plant response rating, Velvetleaf: 30
[5]; [21]
  Velvetleaf plant response rating: 65
[6]; 16 g ai/ha, scale of 0 to 100
  Plant response rating, Waterhemp: 35
[6]; 31 g ai/ha, scale 0 to 100
  Plant response rating, Waterhemp: 60
[6]; [21]
  Waterhemp plant response rating: 75
[6]; rate not given, scale 0 to 100
  Plant response rating, Waterhemp: 75
[7]; 16 g ai/ha, scale of 0 to 100
  Plant response rating, Wheat: 5
[7]; 31 g ai/ha, scale 0 to 100
  Plant response rating, Wheat: 5
[7]; [21]
  Wheat plant response rating: 15
[8]; 16 g ai/ha, scale of 0 to 100
  Plant response rating, Soybean: 30
[8]; 31 g ai/ha, scale 0 to 100
  Plant response rating, Soybean: 30
[8]; 62 g ai/ha
  Soybean plant response rating: 50
[8]; 125 g ai/ha
  Soybean plant response rating: 65
[9]; 16 g ai/ha, scale of 0 to 100
  Plant response rating, Lambsquarters: 40
[9]; 31 g ai/ha, scale 0 to 100
  Plant response rating, Lambsquarters: 75
[9]; 62 g ai/ha
  Lambsquarters plant response rating: 70
[9]; 125 g ai/ha
  Lambsquarters plant response rating: 85
[10]; 16 g ai/ha, scale of 0 to 100
  Plant response rating, Ragweed: 10
[10]; 31 g ai/ha, scale 0 to 100
  Plant response rating, Ragweed: 15
[10]; 62 g ai/ha
  Ragweed plant response rating: 25
[10]; 125 g ai/ha
  Ragweed plant response rating: 15
[11]; 16 g ai/ha, scale of 0 to 100
  Plant response rating, Blackgrass: 10
[11]; 31 g ai/ha, scale 0 to 100
  Plant response rating, Blackgrass: 10
[11]; 62 g ai/ha
  Blackgrass plant response rating: 15
[11]; 125 g ai/ha
  Blackgrass plant response rating: 15
[12]; 16 g ai/ha, scale of 0 to 100
  Plant response rating, Crabgrass, Large: 10
[12]; 31 g ai/ha, scale 0 to 100
  Plant response rating, Crabgrass, Large: 25
[12]; 62 g ai/ha
  Crabgrass, Large plant response rating: 20
[12]; 125 g ai/ha
  Crabgrass, Large plant response rating: 25
[13]; 16 g ai/ha, scale of 0 to 100
  Plant response rating, Oat, Wild: 20
[13]; 31 g ai/ha, scale 0 to 100
  Plant response rating, Oat, Wild: 30
[13]; 62 g ai/ha
  Oat, Wild plant response rating: 30
[13]; 125 g ai/ha
  Oat, Wild plant response rating: 35
[14]; 16 g ai/ha, scale of 0 to 100
  Plant response rating, Foxtail, Giant: 5
[14]; 31 g ai/ha, scale 0 to 100
  Plant response rating, Foxtail, Giant: 10
[14]; 62 g ai/ha
  Foxtail, Giant plant response rating: 30
[14]; 125 g ai/ha
  Foxtail, Giant plant response rating: 40
[15]; 16 g ai/ha, scale of 0 to 100
  Plant response rating, Corn: 15
[15]; 31 g ai/ha, scale 0 to 100
  Plant response rating, Corn: 15
[15]; 62 g ai/ha
  Corn plant response rating: 20
[15]; 125 g ai/ha
  Corn plant response rating: 25
[16]; 16 g ai/ha, scale of 0 to 100
  Plant response rating, Oilseed Rape: 35
[16]; 31 g ai/ha, scale 0 to 100
  Plant response rating, Oilseed Rape: 35
[16]; 62 g ai/ha
  Oilseed Rape plant response rating: 70
[16]; 125 g ai/ha
  Oilseed Rape plant response rating: 85
[17]; 16 g ai/ha, scale of 0 to 100
  Plant response rating, Ryegrass, Italian: 5
[17]; 31 g ai/ha, scale 0 to 100
  Plant response rating, Ryegrass, Italian: 10
[17]; 62 g ai/ha
  Ryegrass, Italian plant response rating: 15
[17]; 125 g ai/ha
  Ryegrass, Italian plant response rating: 20
[18]; 16 g ai/ha, scale of 0 to 100
  Plant response rating, Nutsedge, Yellow: 0
[18]; 31 g ai/ha, scale 0 to 100
  Plant response rating, Nutsedge, Yellow: 0
[18]; 62 g ai/ha
  Nutsedge, Yellow plant response rating: 10
[18]; 125 g ai/ha
  Nutsedge, Yellow plant response rating: 10
[19]; 31 g ai/ha, scale 0 to 100
  Plant response rating, Galium: 50
[19]; 62 g ai/ha, scale 0 to 100
  Plant response rating, Galium: 50
[19]; 125 g ai/ha, scale of 0 to 100
  Plant response rating, Galium: 55
[20]; 31 g ai/ha, scale 0 to 100
  Plant response rating, Surinam Grass: 5
[20]; 62 g ai/ha, scale 0 to 100
  Plant response rating, Surinam Grass: 70
[20]; 125 g ai/ha, scale of 0 to 100
  Plant response rating, Surinam Grass: 60

Source: patent publication US11053204B2, “Pyrimidinyloxy benzene derivatives as herbicides” (FMC Corporation, priority 2015, dated 2021)
